Measurements as given in patent US8685423B2, “Controlling mealybugs” (priority 2011, dated 2014).

Tested on: mealybug, Pseudococcus spp.
Test: Field efficacy on mealy bug, small-plot trials on cotton (Trials A, B, C)
Assay type: in vivo
Settings: Sulfoxaflor 50 g/ha, Chlorpyrifos 500 g/ha, mixture 50 + 500 g/ha
Description: Field Efficacy on Mealy Bug
Applications were made to cotton, Gossypium hirsutum, using small-plot efficacy methods. Chemicals were diluted in water and all treatments were applied using a backpack sprayer calibrated to deliver 500 liters of spray per hectare. Experimental plots measured 5 by 10 meters and each treatment was replicated three times in each trial. Prior to treatment, 20 plants that were uniformly infested with mealybug, Pseudococcus spp., were marked in each experimental plot. At the specified intervals after treatment, the severity of mealybug infestation on the marked plants was rated using a 0-4 scale, where 0=no infestation and 4=stunted, blackened plant. The score for each plant in each experimental plot was summed to provide a total severity score for the plot. Data were transformed to percent control relative to the untreated plots, then subjected to analysis of variance, and means were separated using Tukey's HSD (p=0.1). Expected control was calculated using the method of Colby and compared to observed control. See the Table Section for the results of the Field Trials.

SMILES | % Control (Trial A, 3 DAT) [%] | % Control (Trial A, 7 DAT) [%] | % Control (Trial A, 11 DAT) [%] | % Control (Trial B, 3 DAT) [%] | % Control (Trial B, 7 DAT) [%] | % Control (Trial B, 11 DAT) [%] | % Control (Trial B, 14 DAT) [%] | % Control (Trial C, 4 DAT) [%] | % Control (Trial C, 8 DAT) [%] | % Control (Trial C, 11 DAT) [%] | % Control (Trial C, 14 DAT) [%]
CC(c1ccc(C(F)(F)F)nc1)S(C)(=O)=NC#N (stereo not shown) [Sulfoxaflor] | 17.56 | 21.65 | 20.68 | −2.66 | 7.81 | 7.81 | 5.32 | 7.39 | 9.19 | 4.76 | 2.49
CCOP(=S)(OCC)Oc1nc(Cl)c(Cl)cc1Cl [Chlorpyrifos] | 35.64 | 43.34 | 43.60 | 35.23 | 38.80 | 33.51 | 26.89 | 36.44 | 33.37 | 28.24 | 23.03
